Assay results published in patent US20240190824A1, “INHIBITORS OF TREK (TWIK RELATED K+ CHANNELS) CHANNEL FUNCTION” (ONO PHARMACEUTICAL CO., LTD., priority 2019, published 2024).

molecular target: human TREK-1 (Homo sapiens (Human), UniProt O95069); assay: TREK-1 Thallium (Tl+) flux assay; type: cell-based; conditions: CHO-K1 cells stably expressing human TREK-1
Sequence (O95069 whole entry): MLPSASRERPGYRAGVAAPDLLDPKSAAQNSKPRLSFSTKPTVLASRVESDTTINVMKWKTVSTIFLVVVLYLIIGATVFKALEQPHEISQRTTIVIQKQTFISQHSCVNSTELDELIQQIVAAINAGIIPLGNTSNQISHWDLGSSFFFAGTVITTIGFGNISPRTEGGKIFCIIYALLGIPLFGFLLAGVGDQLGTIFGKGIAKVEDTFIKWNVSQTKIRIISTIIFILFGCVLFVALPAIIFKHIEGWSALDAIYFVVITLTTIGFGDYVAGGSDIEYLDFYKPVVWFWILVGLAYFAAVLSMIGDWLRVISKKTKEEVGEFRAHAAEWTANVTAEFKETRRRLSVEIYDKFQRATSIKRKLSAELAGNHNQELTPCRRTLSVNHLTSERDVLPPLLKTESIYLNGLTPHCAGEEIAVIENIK

Row | Structure (SMILES) | IC50 [nM]
1 | O=C(Nc1ncc(C#Cc2ccccc2)cc1F)c1cc(-c2cnn(C3CCOCC3)c2)ccc1Cl [Compound 55, 2-chloro-N-[3-fluoro-5-(2-phenylethynyl)-2-pyridyl]-5-(1-tetrahydropyran-4ylpyrazol-4-yl)benzamide] | 100
2 | Cc1cc(C#Cc2ccccc2)cnc1NC(=O)c1cc(-c2c(C)cnn2C)ccc1Cl [Compound 76, 2-chloro-5-(2,4-dimethylpyrazol-3-yl)-N-[3-methyl-5-(2-phenylethynyl)-2-pyridyl]benzamide] | 450
3 | Cc1cc(C#Cc2ccccc2)cnc1NC(=O)c1cc(NC(=O)OC(C)(C)C)cnc1Cl [Compound 52, tert-butyl N-[6-chloro-5-[[3-methyl-5-(2-phenylethynyl)-2-pyridyl]carbamoyl]-3-pyridyl]carbamate] | 2170
4 | Cc1cc(C#Cc2ccccc2)cnc1NC(=O)c1cc(OC[C@@H]2COCCO2)ccc1Cl [Compound 23, 2-chloro-5-[[(2S)-1,4-dioxan-2-yl]methoxy]-N-[3-methyl-5-(2-phenylethynyl)-2-pyridyl]benzamide] | 210
5 | O=C(Nc1ncc(C#Cc2ccccc2)cc1F)c1cc(OC[C@H]2COCCO2)ccc1Cl [Compound 80, 2-chloro-5-[[(2R)-1,4-dioxan-2-yl]methoxy]-N-[3-fluoro-5-(2-phenylethynyl)-2-pyridyl]benzamide] | 60
6 | Cc1cc(C#Cc2ccccc2)cnc1NC(=O)c1cc(-c2nnco2)ccc1Cl [Compound 77, 2-chloro-N-[3-methyl-5-(2-phenylethynyl)-2-pyridyl]-5-(1,3,4-oxadiazol-2-yl)benzamide] | 470
7 | Cc1cc(C#Cc2ccccc2)cnc1NC(=O)c1cc(NC(=O)OC(C)(C)C)ccc1Cl [Compound 28, tert-butyl N-[4-chloro-3-[[3-methyl-5-(2-phenylethynyl)-2-pyridyl]carbamoyl]phenyl]carbamate] | 140
8 | Cc1cc(C#Cc2ccccc2)cnc1NC(=O)c1cc(OCC2CCOCC2)ccc1Cl [Compound 20, 2-chloro-N-[3-methyl-5-(2-phenylethynyl)-2-pyridyl]-5-(tetrahydropyran-4-ylmethoxy)benzamide] | 90
9 | Cc1cc(C#Cc2ccccc2)cnc1NC(=O)c1cc(C(=O)N2CC(F)(F)C2)ccc1Cl [Compound 16, 2-chloro-5-(3,3-difluoroazetidine-1-carbonyl)-N-[3-methyl-5-(2-phenylethynyl)-2-pyridyl]benzamide] | 320
10 | Cc1cc(C#Cc2ccccc2)cnc1NC(=O)c1cc(C(=O)N2CC(C)(C)C2)ccc1Cl [Compound 60, 2-chloro-5-(3,3-dimethylazetidine-1-carbonyl)-N-[3-methyl-5-(2-phenylethynyl)-2-pyridyl]benzamide] | 140

More lines, now with the values ahead:

Row | IC50 [nM] | Structure (SMILES)
11 | 190 | Cc1cc(-c2cnn(-c3ccccc3)c2)cnc1NC(=O)c1cc(NC(=O)OC(C)(C)C)ccc1Cl [Compound 93, tert-butyl N-[4-chloro-3-[[3-methyl-5-(1-phenylpyrazol-4-yl)-2-pyridyl]carbamoyl]phenyl]carbamate]
12 | 230 | CC(C)(C)OC(=O)Nc1ccc(Cl)c(C(=O)Nc2ncc(-c3cc(-c4ccccc4)no3)cc2F)c1 [Compound 96, tert-butyl N-[4-chloro-3-[[3-fluoro-5-(3-phenylisoxazol-5-yl)-2-pyridyl]carbamoyl]phenyl]carbamate]
13 | 390 | Cc1cc(C#Cc2ccccc2)cnc1N1Cc2ccc(OCC3CCOCC3)cc2C1=O [Compound 82, 2-(3-methyl-5-(phenylethynyl)pyridin-2-yl)-6-((tetrahydro-2H-pyran-4-yl)methoxy)isoindolin-1-one]
14 | 130 | CC(C)(C)OC(=O)Nc1ccc(Cl)c(C(=O)Nc2ncc(-c3cnn(-c4ccc(F)cc4)c3)cc2F)c1 [Compound 92, tert-butyl (4-chloro-3-((3-fluoro-5-(1-(4-fluorophenyl)-1H-pyrazol-4 yl)pyridin-2-yl)carbamoyl)phenyl)carbamate]
15 | 420 | Cc1cc(C#Cc2ccccc2)cnc1NC(=O)c1cc(OCCN2CCOCC2)ccc1Cl [Compound 84, 2-chloro-N-[3-methyl-5-(2-phenylethynyl)-2-pyridyl]-5-(2-morpholinoethoxy)benzamide]
